Data set [1] relates to ICR-JCL male mice. Particulars: for Total, degree of fibrosis ++: number of mice with grade ++, fourth Total column; for Total, degree of fibrosis -: number of mice with grade -, first Total column; for Total, degree of fibrosis ±: number of mice with grade ±, second Total column.
Source text: The mice were bred for 5 weeks after the final administration and were then dissected. The right and left lungs were observed by microscopic examination.
For data set [2], the system named is HeLa (S3 bb cell line). The settings on record: third day after addition.
Source text: wherein the inhibitory effect= [formula] Co: relative number of cell on the first day t3 : relative number of cell on the third day after the addition of a bleomycin (3 mcg/ml in final)
C3 : relative number of cell in negative control on the third day
For data set [3], the system named is cell culture of Yoshida.
A short description of data set [4]: solubility of the hydrochloride in solvents. The data set is classed as physicochemical.
Data set [5] relates to Mycobacterium 607. The experiment in a line: cup test, antimicrobial activity to Mycobacterium 607. The data set is classed as cell-based. Particulars: standard bleomycin A2 = 1000 μ/mg. The text has this: The endpoint of the hydrolysis reaction can be determined by a reaction in antimicrobial activity of the bleomycin substrate as measured by conventional cup tests using Mycobacterium 607, or by a change in the Rf value during thin layer chromatography.

Read-outs that look alike come from different tables or passages of the source.

Consider `Cc1c(N)nc([C@H](CC(N)=O)NC[C@H](N)C(N)=O)nc1C(=O)N[C@H](C(=O)N[C@H](C)[C@@H](O)[C@H](C)C(=O)N[C@H](C(=O)NCCc1nc(-c2nc(C(=O)NCCCCN=C(N)N)cs2)cs1)[C@@H](C)O)[C@@H](O[C@@H]1O[C@@H](CO)[C@@H](O)[C@H](O)[C@@H]1O[C@H]1O[C@H](CO)[C@@H](O)[C@H](OC(N)=O)[C@@H]1O)c1cnc[nH]1` [bleomycin B2, 4-guanidinobutylamino-bleomycin], for which the “Total, degree of fibrosis ++” value in data set [1] (lung L) came out at 1; in data set [1] (lung R) it was 0. Besides, the entries for the “Total, degree of fibrosis -” value in data set [1] (lung L) and in data set [1] (lung R) were 5 and 4, respectively. Moreover, the “Total, degree of fibrosis ±” value is listed as 1 in data set [1] (lung L) and 3 in data set [1] (lung R). Also, the Inhibitory effect worked out at 33 in data set [2] (1.5 mcg/ml); 64 in data set [2] (3 mcg/ml); 8.6 in data set [3] (0.625 mcg/ml); 34.0 in data set [3] (1.25 mcg/ml); 56.0 in data set [3] (2.5 mcg/ml).
Regarding benzylamino-bleomycin, the Inhibitory effect in data set [2] (1.5 mcg/ml) is 38; in data set [2] (3 mcg/ml), 73; in data set [2] (6 mcg/ml), 92.
hydrochloride of bleomycinic acid: the solubility result in data set [4] (acetic acid) was “sparingly soluble”; in data set [4] (acetone), “insoluble”; in data set [4] (dimethylsulfoxide), “sparingly soluble”; in data set [4] (ethanol), “insoluble”; in data set [4] (ether), “insoluble”; in data set [4] (ethyl acetate) it was “insoluble”. Also, the solubility result was “sparingly soluble” in data set [4] (methanol) and “soluble” in data set [4] (water).
With `Cc1c(N)nc([C@H](CC(N)=O)NC[C@H](N)C(N)=O)nc1C(=O)N[C@H](C(=O)N[C@H](C)[C@@H](O)[C@H](C)C(=O)N[C@H](C(=O)NCCc1nc(-c2nc(C(=O)NCCC[S+](C)C)cs2)cs1)[C@@H](C)O)[C@@H](O[C@@H]1O[C@@H](CO)[C@@H](O)[C@H](O)[C@@H]1O[C@H]1O[C@H](CO)[C@@H](O)[C@H](OC(N)=O)[C@@H]1O)c1c[nH]cn1.[Br-]` [bleomycin A2, 3-dimethylsulfopropylamino-bleomycin], the “antimicrobial activity to Mycobacterium 607” value in data set [5] was determined as 1000 μ/mg.

The values above are taken from patent USRE30413E, “Bleomycinic acid and process for preparing thereof” (Zaidan Hojin Biseibutsu Kagaku Kenkyu Kai, priority 1971, dated 1980).
